The values below come from patent publication US7429585B2, “Phenyl-piperazine methanone derivatives, substituted by heterocyclic groups” (Hoffmann-La Roche, priority 2004, dated 2008).

pIC50: −log10 of the molar value.

This experiment addresses T1, mGlyT-1b (Mus musculus, UniProt P28571).
T1 construct: host or cells: Flp-in-CHO
T1 sequence (P28571 1-651 isoform P28571-2): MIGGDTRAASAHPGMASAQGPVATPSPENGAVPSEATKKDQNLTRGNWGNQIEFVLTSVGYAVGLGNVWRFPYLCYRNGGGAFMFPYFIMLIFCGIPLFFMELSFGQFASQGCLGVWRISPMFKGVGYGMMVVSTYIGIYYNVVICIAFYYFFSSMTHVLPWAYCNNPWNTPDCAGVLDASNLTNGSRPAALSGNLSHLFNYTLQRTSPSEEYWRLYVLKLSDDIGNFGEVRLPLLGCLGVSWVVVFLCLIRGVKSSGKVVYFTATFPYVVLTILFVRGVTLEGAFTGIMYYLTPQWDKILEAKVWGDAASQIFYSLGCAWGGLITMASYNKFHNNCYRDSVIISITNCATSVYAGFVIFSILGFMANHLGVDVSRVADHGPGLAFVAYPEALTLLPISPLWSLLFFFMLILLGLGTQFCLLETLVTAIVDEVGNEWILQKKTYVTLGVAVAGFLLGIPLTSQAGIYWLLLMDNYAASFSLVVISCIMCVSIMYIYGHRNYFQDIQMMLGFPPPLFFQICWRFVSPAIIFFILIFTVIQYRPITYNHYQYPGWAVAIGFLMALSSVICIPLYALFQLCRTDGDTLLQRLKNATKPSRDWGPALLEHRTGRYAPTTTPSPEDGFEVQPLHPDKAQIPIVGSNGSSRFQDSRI
Put plainly: Glycine uptake inhibition assay (mGlyT-1b). Type of experiment: cell-based. Conditions: inhibition of [3H]-glycine uptake in Flp-in-CHO cells transfected with mGlyT-1b cDNA. On the procedure: DMEM complete medium: Nutrient mixture F-12 (Gibco Life-technologies), fetal bovine serum (FBS) 5%, (Gibco life technologies), Penicillin/Streptomycin 1% (Gibco life technologies), Hygromycin 0.6 mg/ml (Gibco life technologies), Glutamine 1 mM Gibco life technologies)
Uptake buffer (UB): 150 mM NaCl, 10 mM Hepes-Tris, pH 7.4, 1 mM CaCl2, 2.5 mM KCl, 2.5 mM MgSO4, 10 mM (+) D-glucose. Flp-in™-CHO (Invitrogen Cat n° R758-07)cells stably transfected with mGlyT1b cDNA.
Glycine Uptake Inhibition Assay (mGlyT-1b)
On day 1 mammalian cells, (Flp-in™-CHO), transfected with mGlyT-1b cDNA, were plated at the density of 40,000 cells/well in complex F-12 medium, without hygromycin in 96-well culture plates. On day 2, the medium was aspirated and the cells were washed twice with uptake buffer (UB). The cells were then incubated for 20 min at 22° C. with either (i) no potential competitor, (ii) 10 mM non-radioactive glycine, (iii) a concentration of a potential inhibitor. A range of concentrations of the potential inhibitor was used to generate data for calculating the concentration of inhibitor resulting in 50% of the effect (e.g. IC50, the concentration of the competitor inhibiting glycine uptake of 50%). A solution was then immediately added containing [^3H]-glycine 60 nM (11-16 Ci/mmol) and 25 μM non-radioactive glycine. The plates were incubated with gentle shaking and the reaction was stopped by aspiration of the mixture and washing (three times) with ice-cold UB. The cells were lysed with scintillation liquid, shaken 3 hours and the radioactivity in the cells was counted using a scintillation counter.

For orientation: pIC50 means −log10 of the IC50, conventionally taken in molar units. Compound `O=C(c1cc([N+](=O)[O-])ccc1N1CCOCC1)N1CCN(c2nc3ccc(Cl)cc3s2)CC1` [Example 1.1, [4-(6-Chloro-benzothiazol-2-yl)-piperazin-1-yl]-(2-morpholin-4-yl-5-nitro-phenyl) -methanone] gave a pIC50 of 6.57.

For the compound `CC(C)Oc1ccc(S(C)(=O)=O)cc1C(=O)N1CCN(c2nc3ccc(Cl)cc3s2)CC1` [Example 1.2, [4-(6-Chloro-benzothiazol-2-yl)-piperazin-1-yl]-(2-isopropoxy-5-methanesulfonyl-phenyl)-methanone], the negative-log IC50 (pIC50) is 6.40. In the case of `CS(=O)(=O)c1ccc(OC2CCCC2)c(C(=O)N2CCN(c3nc4ccccc4o3)CC2)c1` [Example 1.4, (4-Benzoxazol-2-yl-piperazin-1-yl)-(2-cyclopentyloxy-5-methanesulfonyl-phenyl)-methanone], the pIC50 is 7.01. As to `CC(C)COc1ccc(S(C)(=O)=O)cc1C(=O)N1CCN(c2nc3ccccc3o2)CC1` [Example 1.5, (4-Benzoxazol-2-yl-piperazin-1-yl)-(2-isobutoxy-5-methanesulfonyl-phenyl)-methanone], the pIC50 was 6.84.

`COc1ccc2nc(N3CCN(C(=O)c4cc(S(C)(=O)=O)ccc4OC(C)C)CC3)sc2c1` [Example 1.8, (2-Isopropoxy-5-methanesulfonyl-phenyl)-[4-(6-methoxy-benzothiazol-2-yl)-piperazin-1-yl]-methanone] showed a negative logarithm of the IC50 (pIC50) of 6.76.

`CC(C)Oc1ccc(S(C)(=O)=O)cc1C(=O)N1CCN(c2nc3ccc([N+](=O)[O-])cc3s2)CC1` [Example 1.9, (2-Isopropoxy-5-methanesulfonyl-phenyl)-[4-(6-nitro-benzothiazol-2-yl)-piperazin-1-yl]-methanone] gave a negative-log IC50 (pIC50) of 6.69.

The compound `COc1cccc2sc(N3CCN(C(=O)c4cc(S(C)(=O)=O)ccc4OC(C)C)CC3)nc12` [Example 1.11, (2-Isopropoxy-5-methanesulfonyl-phenyl)-[4-(4-methoxy-benzothiazol-2-yl)-piperazin-1-yl]-methanone] showed a pIC50 of 6.83. In turn, `CC(C)Oc1ccc(S(C)(=O)=O)cc1C(=O)N1CCN(c2nc3c([N+](=O)[O-])cccc3s2)CC1` [Example 1.12, (2-Isopropoxy-5-methanesulfonyl-phenyl)-[4-(4-nitro-benzothiazol-2-yl)-piperazin-1-yl]-methanone] gave a pIC50 of 6.43. Then `CC(C)Oc1ccc(S(C)(=O)=O)cc1C(=O)N1CCN(c2nc3c(O)cccc3s2)CC1` [Example 1.13, [4-(4-Hydroxy-benzothiazol-2-yl)-piperazin-1-yl]-(2-isopropoxy-5-methanesulfonyl-phenyl)-methanone], with 6.80; and `CC(C)Oc1ccc(S(C)(=O)=O)cc1C(=O)N1CCN(c2nc3cc(Cl)ccc3s2)CC1` [Example 1.14, [4-(5-Chloro-benzothiazol-2-yl)-piperazin-1-yl]-(2-isopropoxy-5-methanesulfonyl-phenyl)-methanone], with 6.66; and `CCOc1ccc2nc(N3CCN(C(=O)c4cc(S(C)(=O)=O)ccc4OC(C)C)CC3)sc2c1` [Example 1.15, [4-(6-Ethoxy-benzothiazol-2-yl)-piperazin-1-yl]-(2-isopropoxy-5-methanesulfonyl-phenyl)-methanone], with 6.47.

The compound `Cc1nc2cc(N3CCN(C(=O)c4cc(S(C)(=O)=O)ccc4OCC(C)C)CC3)ccc2s1` [Example 1.17, (2-Isobutoxy-5-methanesulfonyl-phenyl)-[4-(2-methyl-benzothiazol-5-yl)-piperazin-1-yl]-methanone] had a pIC50 of 6.36. Regarding `CC(C)COc1ccc(S(C)(=O)=O)cc1C(=O)N1CCN(c2ccc3ccccc3n2)CC1` [Example 1.19, (2-Isobutoxy-5-methanesulfonyl-phenyl)-(4-quinolin-2-yl-piperazin-1-yl)-methanone], the pIC50 is 7.11. For `CS(=O)(=O)c1ccc(OC2CCCC2)c(C(=O)N2CCN(c3ccc4cc(Cl)ccc4n3)CC2)c1` [Example 1.22, [4-(6-Chloro-quinolin-2-yl)-piperazin-1-yl]-(2-cyclopentyloxy-5-methanesulfonyl-phenyl)-methanone], the pIC50 was 6.40. As for `CC(C)COc1ccc(S(C)(=O)=O)cc1C(=O)N1CCN(c2cnc3ccccc3n2)CC1` [Example 1.23, (2-Isobutoxy-5-methanesulfonyl-phenyl)-(4-quinoxalin-2-yl-piperazin-1-yl)-methanone], the figure is 6.78; as for `CC(C)Oc1ccc(S(C)(=O)=O)cc1C(=O)N1CCN(c2cnc3ccccc3n2)CC1` [Example 1.24, (2-Isopropoxy-5-methanesulfonyl-phenyl)-(4-quinoxalin-2-yl-piperazin-1-yl)-methanone], 6.54.

As for `CS(=O)(=O)c1ccc(OC2CCCC2)c(C(=O)N2CCN(c3cnc4ccccc4n3)CC2)c1` [Example 1.25, (2-Cyclopentyloxy-5-methanesulfonyl-phenyl)-(4-quinoxalin-2-yl-piperazin-1-yl)-methanone], the pIC50 is 7.17. Compared with the last compound, the pIC50 is 0.63 log units higher. Turning to `CC(C)COc1ccc(S(C)(=O)=O)cc1C(=O)N1CCN(c2cnc3ccccc3c2)CC1` [Example 1.27, (2-Isobutoxy-5-methanesulfonyl-phenyl)-(4-quinolin-3-yl-piperazin-1-yl)-methanone], the pIC50 is 7.09. Then `CS(=O)(=O)c1ccc(OC2CCCC2)c(C(=O)N2CCN(c3cnc4ccccc4c3)CC2)c1` [Example 1.28, (2-Cyclopentyloxy-5-methanesulfonyl-phenyl)-(4-quinolin-3-yl-piperazin-1-yl)-methanone], with 6.83.

Regarding `CC(C)Oc1ccc(S(C)(=O)=O)cc1C(=O)N1CCN(c2nsc3ccccc23)CC1` [Example 1.29, (4-Benzo [d]isothiazol-3-yl-piperazin-1-yl)-(2-isopropoxy-5-methanesulfonyl-phenyl) -methanone], the negative logarithm of the IC50 (pIC50) is 6.30. Then `O=C(c1cc([N+](=O)[O-])ccc1N1CCOCC1)N1CCN(c2nsc3ccccc23)CC1` [Example 1.31, (4-Benzo[d]isothiazol-3-yl-piperazin-1-yl)-(2-morpholin-4-yl-5-nitro-phenyl) -methanone], with 6.33; and `C[C@H](Oc1ccc(S(C)(=O)=O)cc1C(=O)N1CCN(c2nsc3ccccc23)CC1)C(F)(F)F` [Example 1.33, (4-Benzo[d]isothiazol-3-yl-piperazin-1-yl)-[5-methanesulfonyl-2-((S)-2,2,2-trifluoro-1-methyl-ethoxy)-phenyl]-methanone], with 7.26; and `CS(=O)(=O)c1ccc(OCC2CC2)c(C(=O)N2CCN(c3nc4ccc(Cl)cc4s3)CC2)c1` [Example 1.39, [4-(6-Chloro-benzothiazol-2-yl)-piperazin-1-yl]-(2-cyclopropylmethoxy-5-methanesulfonyl-phenyl)-methanone], with 6.64. As for `C[C@H](Oc1ccc(S(C)(=O)=O)cc1C(=O)N1CCN(c2nc3ccc(Cl)cc3s2)CC1)C(F)(F)F` [Example 1.40, [4-(6-Chloro-benzothiazol-2-yl)-piperazin-1-yl]-[5-methanesulfonyl-2-((S)-2,2,2-trifluoro-1methyl-ethoxy)-phenyl]-methanone], the figure is 7.41.
